Results reported in PubChem BioAssay (NCI).
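Cells were grown in 96-well plates and exposed to each compound for 48 hours at five concentrations; endpoints were interpolated linearly between bracketing concentrations, or set to the highest concentration if not reached. Abbreviation: GI50, concentration required for 50% inhibition of growth. Definition used: TGI = concentration required for complete inhibition of growth.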

Experiments:
Assay in all cases: NCI anticancer screen, dose series, 48 h
[1] = tested on: 786-0 renal
[2] = tested on: A498 renal
[3] = tested on: A549 NSCLC
[4] = tested on: ACHN renal
[5] = tested on: BT-549 breast
[6] = tested on: CAKI-1 renal
[7] = tested on: CCRF-CEM leukemia
[8] = tested on: COLO 205 colon
[9] = tested on: DU-145 prostate
[10] = tested on: EKVX NSCLC
[11] = tested on: HCC-2998 colon
[12] = tested on: HCT-116 colon
[13] = tested on: HCT-15 colon
[14] = tested on: HL-60(TB) leukemia
[15] = tested on: HOP-62 NSCLC
[16] = tested on: HOP-92 NSCLC
[17] = tested on: HS 578T breast
[18] = tested on: HT29 colon
[19] = tested on: IGROV1 ovarian
[20] = tested on: K-562 leukemia
[21] = tested on: KM12 colon
[22] = tested on: LOX IMVI melanoma
[23] = tested on: M14 melanoma
[24] = tested on: MALME-3M melanoma
[25] = tested on: MCF7 breast
[26] = tested on: MDA-MB-231 breast
[27] = tested on: MDA-MB-435
[28] = tested on: MOLT-4 leukemia
[29] = tested on: NCI-H226 lung
[30] = tested on: NCI-H23 lung
[31] = tested on: NCI-H460 lung
[32] = tested on: NCI-H522 lung
[33] = tested on: NCI/ADR-RES ovarian
[34] = tested on: OVCAR-3 ovarian
[35] = tested on: OVCAR-4 ovarian
[36] = tested on: OVCAR-5 ovarian
[37] = tested on: OVCAR-8 ovarian
[38] = tested on: PC-3 prostate
[39] = tested on: RPMI-8226 leukemia
[40] = tested on: SF-268 CNS
[41] = tested on: SF-295 CNS
[42] = tested on: SF-539 CNS
[43] = tested on: SK-MEL-2 melanoma
[44] = tested on: SK-MEL-28 melanoma
[45] = tested on: SK-MEL-5 melanoma
[46] = tested on: SK-OV-3 ovarian
[47] = tested on: SN12C renal
[48] = tested on: SNB-19 CNS
[49] = tested on: SNB-75 CNS
[50] = tested on: SR leukemia
[51] = tested on: SW-620 colon
[52] = tested on: T-47D breast
[53] = tested on: TK-10 renal
[54] = tested on: U251 CNS
[55] = tested on: UACC-257 melanoma
[56] = tested on: UACC-62 melanoma
[57] = tested on: UO-31 renal

CC(C)(O)c1cncc(-c2ccc3ncc(C#N)c(N4CCc5cc(F)c(Cl)cc54)c3c2)c1
GI50 [1]: 3.86 µM
TGI [1]: > 100 µM
GI50 [2]: 2070 nM
TGI [2]: 6.17 µM
GI50 [3]: 3.64 µM
TGI [3]: > 100 µM
GI50 [4]: 2890 nM
TGI [4]: > 100 µM
GI50 [5]: 2700 nM
TGI [5]: 22.7 µM
GI50 [6]: 2370 nM
TGI [6]: > 100 µM
GI50 [7]: 4.25 µM
TGI [7]: > 100 µM
GI50 [8]: 4.48 µM
TGI [8]: 26.7 µM
GI50 [9]: 3.71 µM
TGI [9]: > 100 µM
GI50 [10]: 2550 nM
TGI [10]: 11.3 µM
GI50 [11]: 3.75 µM
TGI [11]: 63.8 µM
GI50 [12]: 5.84 µM
TGI [12]: > 100 µM
GI50 [13]: 4.28 µM
TGI [13]: > 100 µM
GI50 [14]: 6.06 µM
TGI [14]: 28.2 µM
GI50 [15]: 2700 nM
TGI [15]: 57.3 µM
GI50 [16]: 1790 nM
TGI [16]: 7.79 µM
GI50 [17]: 1230 nM
TGI [17]: 4.7 µM
GI50 [18]: 3.31 µM
TGI [18]: > 100 µM
GI50 [19]: 1570 nM
TGI [19]: 6.55 µM
GI50 [20]: 7.09 µM
TGI [20]: > 100 µM
GI50 [21]: 6.81 µM
TGI [21]: > 100 µM
GI50 [22]: 1810 nM
TGI [22]: 17.3 µM
GI50 [23]: 3.79 µM
TGI [23]: > 100 µM
GI50 [24]: 1990 nM
TGI [24]: 7.06 µM
GI50 [25]: 6 µM
TGI [25]: 53.4 µM
GI50 [26]: 2600 nM
TGI [26]: 30.4 µM
GI50 [27]: 3.36 µM
TGI [27]: 32.4 µM
GI50 [28]: 3.11 µM
TGI [28]: > 100 µM
GI50 [29]: 1770 nM
TGI [29]: 15.4 µM
GI50 [30]: 3.6 µM
TGI [30]: 64.3 µM
GI50 [31]: 3.24 µM
TGI [31]: > 100 µM
GI50 [32]: 3.95 µM
TGI [32]: > 100 µM
GI50 [33]: 4.4 µM
TGI [33]: 98.2 µM
GI50 [34]: 2910 nM
TGI [34]: 40.3 µM
GI50 [35]: 2840 nM
TGI [35]: 18.5 µM
GI50 [36]: 3.3 µM
TGI [36]: 82.7 µM
GI50 [37]: 3.19 µM
TGI [37]: > 100 µM
GI50 [38]: 2860 nM
TGI [38]: > 100 µM
GI50 [39]: 2920 nM
TGI [39]: 87.4 µM
GI50 [40]: 3.84 µM
TGI [40]: > 100 µM
GI50 [41]: 2380 nM
TGI [41]: 14.1 µM
GI50 [42]: 2880 nM
TGI [42]: 15.8 µM
GI50 [43]: 4.26 µM
TGI [43]: 21.6 µM
GI50 [44]: 3.39 µM
TGI [44]: 41 µM
GI50 [45]: 3.95 µM
TGI [45]: 13.8 µM
GI50 [46]: 1830 nM
TGI [46]: 8.64 µM
GI50 [47]: 2030 nM
TGI [47]: > 100 µM
GI50 [48]: 4.08 µM
TGI [48]: > 100 µM
GI50 [49]: 1220 nM
TGI [49]: 5.67 µM
GI50 [50]: 3.52 µM
TGI [50]: > 100 µM
GI50 [51]: 4.51 µM
TGI [51]: > 100 µM
GI50 [52]: 4.06 µM
TGI [52]: 76.5 µM
GI50 [53]: 8.33 µM
TGI [53]: 40 µM
GI50 [54]: 4.71 µM
TGI [54]: > 100 µM
GI50 [55]: 4.22 µM
TGI [55]: 63.3 µM
GI50 [56]: 1840 nM
TGI [56]: 10.2 µM
GI50 [57]: 554 nM
TGI [57]: 8.69 µM
